# From PMC10373199 (ACS Omega, 2023)
# Marks after values point to notes of the source that are not given here.
# How the values were obtained:
# Ishikawa cells = assay: AlkP activity in Ishikawa cells; assay type: cell-based, human; details: 72 h, DMSO set to 1
# ovariectomized rats = assay: Uterotrophic assay; assay type: in vivo, rat; details: 10 μg/kg BW/day s.c. for 3 days
# in vitro = details: human
# EBOV = assay type: cell-based, Ebola virus; design: unit not given beside the values
compound,measurement,setting,value
"C[C@]12CC[C@@H]3c4ccc(O)cc4CC[C@H]3[C@@H]1CC[C@@H]2O [Compound E2, 17β-estradiol]",AlkP activity,Ishikawa cells; 10 nM,6.86 ± 0.69 ^a
same,"relative UWW, mean ± SD",ovariectomized rats,3.85 ± 0.71 g/kg BW
"CC/C(=C(\c1ccc(O)cc1)c1ccc(OCCN(C)C)cc1)c1ccccc1 [Compound 4-OH-TAM, 4-hydroxytamoxifen]",AlkP activity,Ishikawa cells; 1 μM,1.73 ± 0.46
same,AlkP activity,Ishikawa cells; 10 μM,0.60 ± 0.20
NC(=O)c1nc(F)c[nH]c1=O [favipiravir],CC50,in vitro,> 1000 µg/mL
same,SI90,EBOV,>14
